Measured values from patent publication US10538498B2, “1,3,4-oxadiazole sulfonamide derivative compounds as histone deacetylase 6 inhibitor, and the pharmaceutical composition comprising the same” (Chong Kun Dang Pharmaceutical Corp., priority 2015, dated 2020).

Target: T1, human recombinant HDAC6 (Homo sapiens, UniProt Q9UBN7)
T1 construct: purchased Calbiochem 382180
T1 sequence (Q9UBN7 1-1215): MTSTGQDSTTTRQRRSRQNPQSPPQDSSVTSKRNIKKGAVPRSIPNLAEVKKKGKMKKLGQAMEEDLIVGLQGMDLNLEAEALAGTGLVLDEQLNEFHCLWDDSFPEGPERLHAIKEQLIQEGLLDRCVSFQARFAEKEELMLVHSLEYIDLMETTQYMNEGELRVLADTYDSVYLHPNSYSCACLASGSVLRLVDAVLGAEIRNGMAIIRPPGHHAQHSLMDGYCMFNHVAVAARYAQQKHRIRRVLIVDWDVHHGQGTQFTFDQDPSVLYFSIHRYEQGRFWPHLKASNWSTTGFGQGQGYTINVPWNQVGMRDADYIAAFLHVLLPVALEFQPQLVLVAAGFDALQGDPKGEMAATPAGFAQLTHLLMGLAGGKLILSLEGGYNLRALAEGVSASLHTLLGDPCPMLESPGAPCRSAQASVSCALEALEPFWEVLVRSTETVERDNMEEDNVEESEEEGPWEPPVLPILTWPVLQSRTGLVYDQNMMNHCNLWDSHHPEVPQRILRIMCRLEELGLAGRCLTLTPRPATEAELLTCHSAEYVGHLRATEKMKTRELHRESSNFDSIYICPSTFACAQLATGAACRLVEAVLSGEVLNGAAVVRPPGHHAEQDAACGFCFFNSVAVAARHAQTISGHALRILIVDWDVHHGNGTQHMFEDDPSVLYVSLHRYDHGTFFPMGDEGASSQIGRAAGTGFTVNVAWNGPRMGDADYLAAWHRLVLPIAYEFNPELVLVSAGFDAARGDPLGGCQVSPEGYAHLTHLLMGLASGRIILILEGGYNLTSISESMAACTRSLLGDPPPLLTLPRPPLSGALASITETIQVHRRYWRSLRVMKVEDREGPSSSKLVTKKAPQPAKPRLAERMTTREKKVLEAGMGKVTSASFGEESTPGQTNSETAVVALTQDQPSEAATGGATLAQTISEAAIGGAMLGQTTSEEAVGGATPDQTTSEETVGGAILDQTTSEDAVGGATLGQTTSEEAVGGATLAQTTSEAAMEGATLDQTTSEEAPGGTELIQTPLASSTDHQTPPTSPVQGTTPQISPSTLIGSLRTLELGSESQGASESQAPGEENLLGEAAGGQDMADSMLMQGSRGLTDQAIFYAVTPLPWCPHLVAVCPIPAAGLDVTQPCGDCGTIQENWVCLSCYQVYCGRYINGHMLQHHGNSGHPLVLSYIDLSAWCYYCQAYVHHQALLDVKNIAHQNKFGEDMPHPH
Test: HDAC6 enzyme activity inhibition assay (HDAC Fluorimetric Drug Discovery Kit)
Type: biochemical
Settings: for HDAC6 selectivity (fold): HDAC1 vs HDAC6; for IC50: same protocol as the HDAC1 enzyme activity test
Procedure, shortened: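 IC50s derived from fluorescence (Ex 360, Em 460) read after a 30-min developer step. Beforehand, compounds in 5-fold dilution series reacted 60 min at 30° C with 0.3 μg human recombinant enzyme and 10 μM Fluor de Lys-SIRT1 substrate.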

Row | HDAC6 selectivity (fold) | IC50 [nM] | SMILES
1 | 724 | 138 | CS(=O)(=O)N(Cc1ccc(-c2nnc(C(F)F)o2)cc1)CC12CC3CC(CC(C3)C1)C2 [Compound 11668, N-((adamantan-1-yl)methyl)-N-(4-(5-(difluoromethyl)-1,3,4-oxadiazol-2-yl)benzyl)methanesulfonamide]
2 | 900 | 111 | CS(=O)(=O)N(Cc1ccc(-c2nnc(C(F)F)o2)cn1)CC12CC3CC(CC(C3)C1)C2 [Compound 11669, N-((adamantan-1-yl)methyl)-N-((5-(5-(difluoromethyl)-1,3,4-oxadiazol-2-yl)pyridin-2-yl)methyl)methanesulfonamide]
3 | 549 | 182 | CC1CCN(CCS(=O)(=O)N(Cc2ccc(-c3nnc(C(F)F)o3)cc2)c2ccccc2)CC1 [Compound 11675, N-(4-(5-(difluoromethyl)-1,3,4-oxadiazol-2-yl)benzyl)-2-(4-methylpiperidin-1-yl)-N-phenylethanesulfonamide]
4 | 1408 | 71 | O=C(OCC1CCN(CCS(=O)(=O)N(Cc2ccc(-c3nnc(C(F)F)o3)cc2)c2ccccc2)CC1)C(F)F [Compound 11676, (1-(2-(N-(4-(5-(difluoromethyl)-1,3,4-oxadiazol-2-yl)benzyl)-N-Phenylsulfamoyl)ethyl)piperidin-4-yl)methyl 2,2-difluoroacetate]
5 | 1754 | 57 | CC(C)(C)OC(=O)N(C(=O)C(F)F)C1CCN(CCS(=O)(=O)N(Cc2ccc(-c3nnc(C(F)F)o3)cc2)c2ccccc2)CC1 [Compound 11677, tert-butyl 2,2-difluoroacetyl(1-(2-(N-(4-(5-(difluoromethyl)-1,3,4-oxadiazol-2-yl)benzyl)-N-phenylsulfamoyl)ethyl)piperidin-4-yl)carbamate]
6 | 6667 | 15 | O=S(=O)(C1CCN(C2COC2)CC1)N(Cc1ccc(-c2nnc(C(F)F)o2)cc1)c1cccc(Cl)c1 [Compound 11681, N-(3-chlorophenyl)-N-(4-(5-(difluoromethyl)-1,3,4-oxadiazol-2-yl)benzyl)-1-(oxetan-3-yl)piperidine-4-sulfonamide]
7 | 4545 | 22 | Cc1cccc(N(Cc2ccc(-c3nnc(C(F)F)o3)cc2)S(=O)(=O)C2CCN(C3COC3)CC2)c1 [Compound 11682, N-(4-(5-(difluoromethyl)-1,3,4-oxadiazol-2-yl)benzyl)-1-(oxetan-3-yl)-N-(m-tolyl)piperidine-4-sulfonamide]
8 | 14285 | 7 | O=S(=O)(C1CCN(C2COC2)CC1)N(Cc1ccc(-c2nnc(C(F)F)o2)cn1)c1cccc(Cl)c1 [Compound 11683, N-(3-chlorophenyl)-N-((5-(5-(difluoromethyl)-1,3,4-oxadiazol-2-yl)pyridin-2-yl)methyl)-1-(oxetan-3-yl)piperidine-4-sulfonamide]
9 | 6250 | 16 | Cc1cccc(N(Cc2ccc(-c3nnc(C(F)F)o3)cn2)S(=O)(=O)C2CCN(C3COC3)CC2)c1 [Compound 11684, N-((5-(5-(difluoromethyl)-1,3,4-oxadiazol-2-yl)pyridin-2-yl)methyl)-1-(oxetan-3-yl)-N-(m-tolyl)piperidine-4-sulfonamide]
10 | 5882 | 17 | CN(C)CCCS(=O)(=O)N(Cc1ccc(-c2nnc(C(F)F)o2)cc1)c1ccccc1 [Compound 11685, N-(4-(5-(difluoromethyl)-1,3,4-oxadiazol-2-yl)benzyl)-3-(dimethylamino)-N-phenylpropane-1-sulfonamide]

The next lines start with the compound.

Row | SMILES | HDAC6 selectivity (fold) | IC50 [nM]
11 | CN1CCN(CCS(=O)(=O)N(Cc2ccc(-c3nnc(C(F)F)o3)cc2)c2ccccc2)CC1 [Compound 11630, N-(4-(5-(difluoromethyl)-1,3,4-oxadiazol-2-yl)benzyl)-2-(4-methylpiperazin-1-yl)-N-phenylethane-1-sulfonamide] | 3225 | 31
12 | CC(C)(C)OC(=O)N1CCN(CCS(=O)(=O)N(Cc2ccc(-c3nnc(C(F)F)o3)cc2)c2ccccc2)CC1 [Compound 11631, tert-butyl 4-(2-(N-(4-(5-(difluoromethyl)-1,3,4-oxadiazol-2-yl)benzyl)-N-phenylsulfamoyl)ethyl)piperazine-1-carboxylate] | 436 | 229
13 | C[C@@H]1CN(CCS(=O)(=O)N(Cc2ccc(-c3nnc(C(F)F)o3)cc2)c2ccccc2)C[C@H](C)N1 [Compound 11632, N-(4-(5-(difluoromethyl)-1,3,4-oxadiazol-2-yl)benzyl)-2-((3S,5R)-3,5-dimethylpiperazin-1-yl)-N-phenylethane-1-sulfonamide] | 1587 | 63
14 | CC(=O)N1CCN(CCS(=O)(=O)N(Cc2ccc(-c3nnc(C(F)F)o3)cc2)c2ccccc2)CC1 [Compound 11633, 2-(4-acetylpiperazin-1-yl)-N-(4-(5-(difluoromethyl)-1,3,4-oxadiazol-2-yl)benzyl)-N-phenylethane-1-sulfonamide] | 2173 | 46
15 | CS(=O)(=O)N1CCN(CCS(=O)(=O)N(Cc2ccc(-c3nnc(C(F)F)o3)cc2)c2ccccc2)CC1 [Compound 11634, N-(4-(5-(difluoromethyl)-1,3,4-oxadiazol-2-yl)benzyl)-2-(4-(methylsulfonyl)piperazin-1-yl)-N-phenylethane-1-sulfonamide] | 2083 | 48
16 | CS(=O)(=O)N(Cc1ccc(-c2nnc(C(F)F)o2)cc1)c1cncnc1 [Compound 11636, N-(4-(5-(difluoromethyl)-1,3,4-oxadiazol-2-yl)benzyl)-N-(pyrimidin-5-yl)methanesulfonamide] | 862 | 116
17 | O=S(=O)(CCN1CCOCC1)N(Cc1ccc(-c2nnc(C(F)F)o2)cc1)c1ccccc1 [Compound 11655, N-(4-(5-(difluoromethyl)-1,3,4-oxadiazol-2-yl)benzyl)-2-morpholino-N-phenylethanesulfonamide] | 1724 | 58
18 | CC(=O)N1CCN(CCCS(=O)(=O)N(Cc2ccc(-c3nnc(C(F)F)o3)cc2)c2ccccc2)CC1 [Compound 11656, 3-(4-acetylpiperazin-1-yl)-N-(4-(5-(difluoromethyl)-1,3,4-oxadiazol-2-yl)benzyl)-N-phenylpropane-1-sulfonamide] | 1587 | 63
19 | O=S(=O)(CCCN1CCCCC1)N(Cc1ccc(-c2nnc(C(F)F)o2)cc1)c1ccccc1 [Compound 11657, N-(4-(5-(difluoromethyl)-1,3,4-oxadiazol-2-yl)benzyl)-N-phenyl-3-(piperidin-1-yl)propane-1-sulfonamide] | 1219 | 82
20 | CN1CCN(CCCS(=O)(=O)N(Cc2ccc(-c3nnc(C(F)F)o3)cc2)c2ccccc2)CC1 [Compound 11658, N-(4-(5-(difluoromethyl)-1,3,4-oxadiazol-2-yl)benzyl)-3-(4-methylpiperazin-1-yl)-N-phenylpropane-1-sulfonamide] | 2500 | 40
21 | O=S(=O)(CCN1CCN(Cc2ccccc2)CC1)N(Cc1ccc(-c2nnc(C(F)F)o2)cc1)c1ccccc1 [Compound 11663, 2-(4-benzylpiperazin-1-yl)-N-(4-(5-(difluoromethyl)-1,3,4-oxadiazol-2-yl)benzyl)-N-phenylethanesulfonamide] | 578 | 173
22 | C[C@@H]1CN(CCCS(=O)(=O)N(Cc2ccc(-c3nnc(C(F)F)o3)cc2)c2ccccc2)C[C@H](C)N1C [Compound 11665, N-(4-(5-(difluoromethyl)-1,3,4-oxadiazol-2-yl)benzyl)-N-phenyl-3-((3R,5S)-3,4,5-trimethylpiperazin-1-yl)propane-1-sulfonamide] | 5263 | 19
